Patent publication US6924366B2, “Recombinant hexose oxidase, a method of producing same and use of such enzyme” (Bioteknologisk Institut, priority 1995, dated 2005)

Experiments:
[1] = molecular target: T1, native hexose oxidase from Chondrus crispus (Chondrus crispus, UniProt P93762); conditions: literature data; cited from earlier work
T1 sequence (P93762 1-546): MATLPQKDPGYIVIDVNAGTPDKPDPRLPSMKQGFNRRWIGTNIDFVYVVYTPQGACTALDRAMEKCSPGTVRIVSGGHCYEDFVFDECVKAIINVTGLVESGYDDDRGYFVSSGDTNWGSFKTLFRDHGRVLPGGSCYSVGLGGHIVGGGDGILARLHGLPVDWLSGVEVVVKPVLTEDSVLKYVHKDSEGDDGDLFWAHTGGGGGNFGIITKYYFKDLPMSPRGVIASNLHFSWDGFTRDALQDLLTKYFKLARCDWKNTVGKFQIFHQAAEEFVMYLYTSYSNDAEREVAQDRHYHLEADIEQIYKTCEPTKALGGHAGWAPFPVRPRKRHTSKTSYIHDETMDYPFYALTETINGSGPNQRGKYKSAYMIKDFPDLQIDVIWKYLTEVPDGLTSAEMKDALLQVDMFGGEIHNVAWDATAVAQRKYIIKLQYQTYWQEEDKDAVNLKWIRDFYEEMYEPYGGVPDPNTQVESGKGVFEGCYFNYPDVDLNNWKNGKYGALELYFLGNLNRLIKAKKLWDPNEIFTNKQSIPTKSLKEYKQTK

[2] = molecular target: T2, recombinant hexose oxidase from Pichia pastoris (Chondrus crispus, UniProt P93762); assay: Substrate specificity of recombinant hexose oxidase (o-dianisidine/peroxidase assay); assay type: biochemical; conditions: sugar at a final concentration of 0.1 M; recombinant hexose oxidase expressed in Pichia pastoris
T2 construct: the entire hexose oxidase gene was amplified and isolated from at least three independent PCR amplifications; made in house; host or cells: Pichia pastoris KM71 with plasmid pUPO153 (pPIC3 vector), intracellular
T2 sequence (P93762 4-337 limits assumed): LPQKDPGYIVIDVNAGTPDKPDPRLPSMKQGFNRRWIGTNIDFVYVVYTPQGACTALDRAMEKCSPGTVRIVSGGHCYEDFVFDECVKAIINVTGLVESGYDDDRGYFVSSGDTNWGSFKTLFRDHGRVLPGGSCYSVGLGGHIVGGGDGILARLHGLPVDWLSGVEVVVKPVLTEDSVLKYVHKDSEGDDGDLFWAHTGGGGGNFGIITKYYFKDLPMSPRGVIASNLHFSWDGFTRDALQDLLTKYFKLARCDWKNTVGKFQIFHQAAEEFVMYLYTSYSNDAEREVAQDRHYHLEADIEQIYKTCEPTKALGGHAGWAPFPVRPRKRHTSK
T2 sequence (P93762 338-546 limits assumed): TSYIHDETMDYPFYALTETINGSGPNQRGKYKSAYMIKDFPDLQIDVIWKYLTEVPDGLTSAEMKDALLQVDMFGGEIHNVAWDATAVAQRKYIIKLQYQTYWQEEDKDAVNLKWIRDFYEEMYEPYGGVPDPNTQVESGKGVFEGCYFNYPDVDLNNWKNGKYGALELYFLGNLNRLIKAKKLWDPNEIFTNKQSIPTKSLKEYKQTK
Description: (§1) The procedure used was essentially as described by Sullivan and Ikawa, 1973. This assay is based on the principle that the hydrogen peroxide formed in the oxidation of the sugar in the presence of peroxidase reacts with the chromogenic substance, o-dianisidine to form a dye with absorbance at 402 nm.
(§2) The assay mixture consisted of 1-40 μl of enzyme sample and 850 μl of an assay solution containing 370 μl of 0.1 M sodium phosphate buffer, pH 7.0; 462 μl of 0.1 M D-glucose in 0.1 M sodium phosphate buffer, pH 7.0; 9 μl of horse radish peroxidase, 0.1 mg/ml in water (Sigma Chemicals, cat. no. P 6782 or Boehringer Mannheim, cat. no. 814 393); and 9 μl of o-dianisidine.2HCl, 3.0 mg/ml in water (3,3′-dimethoxybenzidine, Sigma Chemicals). After incubation at room temperature for 15 or 30 minutes the assay was stopped by addition of one drop of 37% HCl (Merck, p.a.). Samples of 100 μl were transferred from the assay tubes to the wells of a microtiter plate (NUNC, Denmark) and the absorbance at 410 nm was read on a Titertek Multiskan II PLUS plate reader (Labsystems/Flow Laboratories, Finland). To ensure that the observed activity was due to hexose oxidase—and not glucose oxidase—the assay was occasionally performed with D-galactose as the substrate instead of D-glucose.
(§3) The substrate specificity of recombinant hexose oxidase from Pichia pastoris and native hexose oxidase from Chondrus crispus was compared using a number of sugars at a final concentration of 0.1 M in the assay described above.

[3] = molecular target: T3, native hexose oxidase from Chondrus crispus (Chondrus crispus, UniProt P93762); assay: Substrate specificity of native hexose oxidase (o-dianisidine/peroxidase assay); assay type: biochemical; conditions: sugar at a final concentration of 0.1 M
T3 construct: the native form isolated from Chondrus crispus; from tissue; host or cells: Chondrus crispus (red alga) fronds
T3 sequence (P93762 4-337 limits assumed): T2 sequence (P93762 4-337 limits assumed)
T3 sequence (P93762 338-546 limits assumed): T2 sequence (P93762 338-546 limits assumed)
Description: as §1, §2, §3

[4] = molecular target: T3, native hexose oxidase from Chondrus crispus; assay: Inhibition of native hexose oxidase by sodium diethyldithiocarbamate; assay type: biochemical; conditions: read-out: Inhibition (%), Native enzyme
Description: as §1
as §2, with “D-glucose. […]” for “D-glucose.”

[5] = molecular target: T2, recombinant hexose oxidase from Pichia pastoris; assay: Inhibition of recombinant hexose oxidase by sodium diethyldithiocarbamate; assay type: biochemical; conditions: read-out: Inhibition (%), Recombinant enzyme
Description: as §1
as §2, with “D-glucose. […]” for “D-glucose.”

[6] = molecular target: T4, hexose oxidase from Chondrus crispus (Chondrus crispus, UniProt P93762); conditions: reported by Sullivan and Ikawa (1973); cited from earlier work
T4 sequence (P93762 1-546): T1 sequence (P93762 1-546)

Compound | Relative rate, native enzyme, Sullivan and Ikawa, 1973 [1] | Relative rate, recombinant enzyme [2] | Relative rate, native enzyme, this work [3] | inhibition at 10 µM [4] | inhibition at 100 µM [4] | inhibition at 10 µM ([5]; concentration of inhibitor 0.01 mM) | inhibition at 100 µM ([5]; concentration of inhibitor 0.1 mM) | Inhibition of hexose oxidase (in words) [6]
O=C[C@H](O)[C@@H](O)[C@H](O[C@@H]1O[C@H](CO)[C@@H](O)[C@H](O)[C@H]1O)[C@H](O)CO [Cellobiose] | 32 | 51 | 33 | – | – | – | – | –
O=C[C@H](O)[C@@H](O)[C@@H](O)[C@H](O)CO [D-Galactose] | 82 | 75 | 75 | – | – | – | – | –
O=C[C@H](O)[C@@H](O)[C@H](O)[C@H](O)CO [D-Glucose] | 100 | 100 | 100 | – | – | – | – | –
OC[C@H]1O[C@@H](O[C@H]2[C@H](O)[C@@H](O)C(O)O[C@@H]2CO)[C@H](O)[C@@H](O)[C@H]1O (some centres unmarked) [Lactose] | 22 | 38 | 25 | – | – | – | – | –
OC[C@H]1O[C@H](O[C@H]2[C@H](O)[C@@H](O)[C@H](O)O[C@@H]2CO)[C@H](O)[C@@H](O)[C@@H]1O [Maltose] | 40 | 57 | 37 | – | – | – | – | –
CCN(CC)C(=S)[S-].[Na+] [sodium diethyldithiocarbamate] | – | – | – | 41% | 95% | 39% | 96% | strongly inhibited
